The values below come from patent US10800772B2 (Gilead Sciences, Inc., priority 2016, dated 2020).

Like-named read-outs stand apart in the source and are kept apart here.

One may read the half-life as how long it takes for the measured level to halve. Read a high half-life as slow loss. One may read the EC50 as the midpoint of the concentration-response curve.

The nature of series [1]: in vitro. The settings on record: human, microsomes.
The subject of series [2] is HIV-IIIb (wildtype). Kind of series: Antiviral assay in MT4 cells, HIV-IIIb wildtype. The series is classed as cell-based, HIV-1. The settings on record: read-out: WT EC50. Summed up:
(§1)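 Compounds were titrated as 3-fold serial dilutions at 10 concentrations, in quadruplicate, against 2000 MT4 cells/well that had been infected for 3 h with HIV-IIIb at 0.004 m.o.i. Viruses were wildtype or integrase T174I mutants from breakthrough selection or dose-escalation passaging; mock-infected cells were run in parallel. After 5 days' culture, EC50 was derived as 50% reduction of CellTiter-Glo luminescence, which reflects HIV-1 replication.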

Series [3] has as its system HIV-IIIb IN T174I BT. The series is described as follows: Antiviral assay in MT4 cells, HIV-IIIb IN T174I BT virus (from viral breakthrough). The series is classed as cell-based, HIV-1. The settings on record: Human immunodeficiency virus 1, IIIB, MT4, 120 h, read-out: T174I BT EC50, MT4 cells, HIV-IIIb IN T174I BT (viral breakthrough), 5 days, CellTiter-Glo. Summed up:
as §1
A general note: Cellular ATP, detected with luciferase, serves as a proxy for viable cell number.

The subject of series [4] is HIV-IIIb IN T174I DE. The series is described as follows: Antiviral assay in MT4 cells, HIV-IIIb IN T174I DE virus (from dose escalation passaging). It counts as cell-based, HIV-1. The conditions noted are these: Human immunodeficiency virus 1, IIIB, MT4, 120 h, read-out: T174I DE EC50, MT4 cells, HIV-IIIb IN T174I DE (dose escalation), 5 days, CellTiter-Glo. The gist of the method:
as §1

A short description of series [5]: Hum MS stability (human microsomal stability half-life). The conditions noted are these: human microsomes.
The mark [6] stands for this setting: Human immunodeficiency virus 1, 120 h, MT4 cells, HIV-IIIb wildtype, 5 days, CellTiter-Glo.
The mark [7] stands for this setting: Human immunodeficiency virus 1, IIIB, MT4, 120 h.

In series [1], `Cc1cc2nc(-c3ccc4c(c3)c(C3CCN(C5CC5)CC3)nn4C)sc2c(-c2ccc(Cl)cc2)c1[C@H](OC(C)(C)C)C(=O)O` [Compound 128, (S)-2-(tert-butoxy)-2-(7-(4-chloro-phenyl)-2-(3-(1-cyclopropylpiperidin-4-yl)-1-methyl-1H-indazol-5-yl)-5-methylbenzo[d]thiazol-6-yl) acetic acid] came in with a half-life of 4.03 h. In addition, the results for the EC50 in series [2] (setting [6]), in series [3] and in series [4] were 0.004 µM, 0.292 µM and 0.511 µM, respectively.
In the case of `Cc1cc2nc(-c3ccc4c(n3)c(N3CCN([C@H]5C[C@@H](O)C5)CC3)nn4C)sc2c(-c2ccc(Cl)cc2)c1[C@H](OC(C)(C)C)C(=O)O` [Compound 197, (S)-2-(tert-butoxy)-2-(7-(4-chloro-phenyl)-2-(3-(4-((1s,3s)-3-hydroxy-cyclobutyl)piperazin-1-yl)-1-methyl-1H-pyrazolo[4,3-b]pyridin-5-yl)-5-methylbenzo[d]thiazol-6-yl) acetic acid], the half-life in series [5] stood at 2.8 h. Moreover, the EC50 in series [2] (setting [7]) turned out to be 0.018 µM; in series [3] it was 0.936 µM; in series [4], 2.68 µM.
In the same order, the values of `Cc1cc2nc(-c3ccc4c(n3)c(C3CCN([C@H]5C[C@@H](O)C5)CC3)nn4C)sc2c(-c2ccc(Cl)cc2)c1[C@H](OC(C)(C)C)C(=O)O` [Compound 188, (S)-2-(tert-butoxy)-2-(7-(4-chloro-phenyl)-2-(3-(1-((1s,3s)-3-hydroxy-cyclobutyl)piperidin-4-yl)-1-methyl-1H-pyrazolo[4,3-b]pyridin-5-yl)-5-methylbenzo[d]thiazol-6-yl) acetic acid] are 2.53 h, 0.011 µM, 0.196 µM and 0.391 µM.
In the same order, the values of `Cc1cc2nc(-c3ccc4c(c3)c(N3CCN(C)C3=O)nn4C)sc2c(-c2ccc(Cl)cc2)c1[C@H](OC(C)(C)C)C(=O)O` [Compound 80, (S)-2-(tert-butoxy)-2-(7-(4-chlorophenyl)-5-methyl-2-(1-methyl-3-(3-methyl-2-oxoimidazolidin-1-yl)-1H-indazol-5-yl)benzo[d]thiazol-6-yl)acetic Acid] are 5.42 h, 0.013 µM, 1.51 µM and 2.28 µM.
The corresponding values for `Cc1cc2nc(-c3ccc4c(c3)c(C3CCOC3)nn4C)sc2c(-c2ccc(Cl)cc2)c1[C@H](OC(C)(C)C)C(=O)O` (stereo partly drawn) [Compound 52, (2S)-2-(tert-butoxy)-2-(7-(4-chlorophenyl)-5-methyl-2-(1-methyl-3-(tetrahydrofuran-3-yl)-1H-indazol-5-yl)benzo[d]thiazol-6-yl)acetic acid] are 3.72 h, 0.008 µM, 0.905 µM and 0.946 µM.
Compound `COCCN1CCC(c2nn(C)c3ccc(-c4nc5cc(C)c([C@H](OC(C)(C)C)C(=O)O)c(-c6ccc(Cl)cc6)c5s4)cc23)C1` (single isomer, unassigned) [Compound 69] yielded a half-life in series [5] of 5.72 h. The EC50 came to 0.005 µM in series [2] (setting [7]), 0.972 µM in series [3] and 1.15 µM in series [4].
The corresponding values for `Cc1cc2nc(-c3ccc4c(c3)c(N3CCN(C)CC3)nn4C)sc2c(-c2ccc(Cl)cc2)c1[C@H](OC1CC1)C(=O)O` [Compound 103, (S)-2-(7-(4-chlorophenyl)-5-methyl-2-(1-methyl-3-(4-methylpiperazin-1-yl)-1H-indazol-5-yl)benzo[d]thiazol-6-yl)-2-cyclopropoxyacetic acid] are 2.47 h, 0.032 µM, 0.267 µM and 0.367 µM.
The corresponding values for `CCOCCN1CCN(c2nn(C)c3ccc(-c4nc5cc(C)c([C@H](OC(C)(C)C)C(=O)O)c(-c6ccc(Cl)cc6)c5s4)cc23)CC1` [Compound 99, (S)-2-(tert-butoxy)-2-(7-(4-chlorophenyl)-2-(3-(4-(2-ethoxyethyl)piperazin-1-yl)-1-methyl-1H-indazol-5-yl)-5-methylbenzo[d]thiazol-6-yl)acetic Acid] are 4.33 h, 0.006 µM, 0.485 µM and 0.759 µM.
The corresponding values for `Cc1cc2nc(-c3ccc4c(c3)c(C3CCN(C5CCOC5)CC3)nn4C)sc2c(-c2ccc(Cl)cc2)c1[C@H](OC(C)(C)C)C(=O)O` (stereo in doubt) [Compound 26, (S)-2-(tert-butoxy)-2-(7-(4-chlorophenyl)-5-methyl-2-(1-methyl-3-(1-((S)-tetrahydrofuran-3-yl)piperidin-4-yl)-1H-indazol-5-yl)benzo[d]thiazol-6-yl)acetic Acid] are 4.68 h, 0.004 µM, 0.129 µM and 0.27 µM.
In series [5], `Cc1cc2nc(-c3ccc4c(c3)c(N3CC(C)(C)N(C)C3=O)nn4C)sc2c(-c2ccc(Cl)cc2)c1[C@H](OC(C)(C)C)C(=O)O` [Compound 122, (S)-2-(tert-butoxy)-2-(7-(4-chlorophenyl)-5-methyl-2-(1-methyl-3-(3,4,4-trimethyl-2-oxoimidazolidin-1-yl)-1H-indazol-5-yl)benzo[d]thiazol-6-yl)acetic acid] came in with a half-life of 4.48 h. Besides, the EC50 was determined as 0.014 µM in series [2] (setting [7]), 1.44 µM in series [3] and 3.81 µM in series [4].
In the same order, the values of `COCCN1CCN(c2nn(C)c3ccc(-c4nc5cc(C)c([C@H](OC(C)(C)C)C(=O)O)c(-c6ccc(Cl)cc6)c5s4)cc23)CC1` [Compound 98, (S)-2-(tert-butoxy)-2-(7-(4-chlorophenyl)-2-(3-(4-(2-methoxyethyl)piperazin-1-yl)-1-methyl-1H-indazol-5-yl)-5-methylbenzo[d]thiazol-6-yl)acetic acid] are 3.17 h, 0.004 µM, 0.29 µM and 0.516 µM.
In the case of `[2H]C([2H])([2H])C(O[C@H](C(=O)O)c1c(C)cc2nc(-c3ccc4c(c3)c(C3CCN(C5COC5)CC3)nn4C)sc2c1-c1ccc(Cl)cc1)(C([2H])([2H])[2H])C([2H])([2H])[2H]` [Compound 21, (S)-2-(7-(4-chlorophenyl)-5-methyl-2-(1-methyl-3-(1-(oxetan-3-yl)piperidin-4-yl)-1H-indazol-5-yl)benzo[d]thiazol-6-yl)-2-((2-(methyl-d3)propan-2-yl-1,1,1,3,3,3-d6)oxy)acetic Acid], the half-life in series [5] is 3.3 h. Further, the half-maximal effective concentration (EC50) in series [2] (setting [6]) was determined as 0.004 µM; in series [3] it was 0.124 µM; in series [4] it was 0.239 µM.
`COCCN(C)C1CN(c2nn(C)c3ccc(-c4nc5cc(C)c([C@H](OC(C)(C)C)C(=O)O)c(-c6ccc(Cl)cc6)c5s4)cc23)C1` [Compound 145, (S)-2-(tert-butoxy)-2-(7-(4-chloro-phenyl)-2-(3-(3-((2-methoxyethyl) (methyl)amino)azetidin-1-yl)-1-methyl-1H-indazol-5-yl)-5-methylbenzo[d]thiazol-6-yl) acetic acid] had a half-life in series [5] of 2.15 h. Further, the EC50 was determined as 0.012 µM in series [2] (setting [7]), 1.59 µM in series [3] and 2.17 µM in series [4].
In the same order, the values of `Cc1cc2nc(-c3ccc4c(c3)c(C3CCOCC3)nn4C)sc2c(-c2ccc(Cl)cc2)c1[C@H](OC(C)(C)C)C(=O)O` [Compound 19, (S)-2-(tert-butoxy)-2-(7-(4-chlorophenyl)-5-methyl-2-(1-methyl-3-(tetrahydro-2H-pyran-4-yl)-1H-indazol-5-yl)benzo[d]thiazol-6-yl)acetic Acid] are 4.15 h, 0.012 µM, 1.17 µM and 2.78 µM.
In the same order, the values of `COCCOC1CN(c2nn(C)c3ccc(-c4nc5cc(C)c([C@H](OC(C)(C)C)C(=O)O)c(-c6ccc(Cl)cc6)c5s4)cc23)C1` [Compound 134, (S)-2-(tert-butoxy)-2-(7-(4-chloro-phenyl)-2-(3-(3-(2-methoxyethoxy)azetidin-1-yl)-1-methyl-1H-indazol-5-yl)-5-methylbenzo[d]thiazol-6-yl) acetic acid] are 1.48 h, 0.013 µM, 1.16 µM and 2.24 µM.
